Results from ChEMBL document CHEMBL1124555, “9-Amino-1,2,3,4-tetrahydroacridin-1-ols: synthesis and evaluation as potential Alzheimer's disease therapeutics” (J Med Chem, 1989).
pIC50: −log10 of the molar value.

Columns and labels:
[1] = species: Rattus norvegicus; assay: cells
Description: Compound was evaluated for inhibition of the reuptake of norepinephrine

[2] = molecular target: Sodium-dependent dopamine transporter (Rattus norvegicus, UniProt P23977); type: functional
Description: Inhibition of the reuptake of dopamine in rat corpora striata.

[3] = molecular target: T1, Acetylcholinesterase (Rattus norvegicus, UniProt P37136)
T1 sequence (P37136 whole entry): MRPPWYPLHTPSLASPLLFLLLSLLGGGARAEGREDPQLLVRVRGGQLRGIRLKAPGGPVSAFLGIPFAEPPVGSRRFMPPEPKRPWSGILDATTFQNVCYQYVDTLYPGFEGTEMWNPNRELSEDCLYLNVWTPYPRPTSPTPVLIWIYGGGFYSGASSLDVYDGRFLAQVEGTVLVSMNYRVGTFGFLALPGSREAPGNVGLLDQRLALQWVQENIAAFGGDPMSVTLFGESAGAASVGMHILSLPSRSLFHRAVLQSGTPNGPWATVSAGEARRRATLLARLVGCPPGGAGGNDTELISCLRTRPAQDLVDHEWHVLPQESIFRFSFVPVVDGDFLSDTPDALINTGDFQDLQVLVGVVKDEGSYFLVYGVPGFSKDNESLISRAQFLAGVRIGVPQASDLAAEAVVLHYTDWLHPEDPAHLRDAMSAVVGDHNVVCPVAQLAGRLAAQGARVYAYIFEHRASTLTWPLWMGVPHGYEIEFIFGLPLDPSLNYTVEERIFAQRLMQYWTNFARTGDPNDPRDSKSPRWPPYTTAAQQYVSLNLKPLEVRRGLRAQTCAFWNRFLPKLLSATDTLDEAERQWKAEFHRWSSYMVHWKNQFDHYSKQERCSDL
Description: In vitro inhibition against acetylcholinesterase in rat striata.

[4] = Toxicity was evaluated in rats, after intraperitoneal administration;Value ranges from(40-80); type: organism-based; conditions: rat, in vivo, ip
[5] = molecular target: Sodium-dependent serotonin transporter (Rattus norvegicus, UniProt P31652); type: functional
Description: Inhibition of serotonin reuptake in rat whole brains without cerebellum

[6] = species: Mus musculus; type: functional; conditions: at 0.63 mg/kg
Description: Reversal of scopolamine-induced memory impairment in mice at 0.63 mg/Kg administered subcutaneously.

[7] = species: Mus musculus; type: functional; conditions: at 1.25 mg/kg
Description: Reversal of scopolamine-induced memory impairment in mice at 1.25 mg/Kg administered subcutaneously.

[8] = species: Mus musculus; type: functional; conditions: at 0.16 mg/kg
Description: Reversal of scopolamine-induced memory impairment in mice at 0.16 mg/Kg administered subcutaneously.

[9] = species: Mus musculus; type: functional; conditions: at […]
Description: Reversal of scopolamine-induced memory impairment in mice at 0.31 mg/Kg administered subcutaneously.

[10] = species: Mus musculus; type: functional; conditions: at 2.5 mg/kg
Description: Reversal of scopolamine-induced memory impairment in mice at 2.5 mg/Kg administered subcutaneously.

[11] = Toxicity was evaluated in rats, after intraperitoneal administration;Value ranges from (40-80); type: organism-based; conditions: rat, in vivo, ip
[12] = species: Mus musculus; type: functional; conditions: at 5 mg/kg
Description: Reversal of scopolamine-induced memory impairment in mice at 5 mg/Kg administered subcutaneously.

[13] = molecular target: Norepinephrine transporter (Rattus norvegicus, UniProt Q9WTR4)
Description: Inhibition of norepinephrine reuptake in rat whole brains minus cerebellar

[14] = system: Mus musculus; assay: Intra peritoneal administration for the reversal of tetrabenazine ptosis in mice; type: functional
[15] = in vivo; conditions: rat, ip
Description: Toxicity evaluated in rats after intraperitoneal administration.

[16] = Toxicity was evaluated in rats, after intraperitoneal administration;Value ranges from (40-80).; type: organism-based; conditions: rat, in vivo, ip
[17] = Toxicity was evaluated in mice, after intraperitoneal administration;Value ranges from(83-107); type: organism-based; conditions: mouse, in vivo, ip
[18] = molecular target: T1, Acetylcholinesterase; assay: In vitro inhibition against acetylcholinesterase in rat striatal; type: functional
[19] = species: Mus musculus; assay: Compound was tested in nbm model of mice, for the dose at which reversal of retention deficit in lesioned animals and enhanced learning in sham-pperated animals was observed; type: functional
[20] = Toxicity was evaluated in rats, after intraperitoneal administration;Value ranges from 50-60; type: organism-based; conditions: rat, in vivo, ip
[21] = in vivo; conditions: mouse, ip

Chain of Sodium-dependent dopamine transporter (P23977 whole entry): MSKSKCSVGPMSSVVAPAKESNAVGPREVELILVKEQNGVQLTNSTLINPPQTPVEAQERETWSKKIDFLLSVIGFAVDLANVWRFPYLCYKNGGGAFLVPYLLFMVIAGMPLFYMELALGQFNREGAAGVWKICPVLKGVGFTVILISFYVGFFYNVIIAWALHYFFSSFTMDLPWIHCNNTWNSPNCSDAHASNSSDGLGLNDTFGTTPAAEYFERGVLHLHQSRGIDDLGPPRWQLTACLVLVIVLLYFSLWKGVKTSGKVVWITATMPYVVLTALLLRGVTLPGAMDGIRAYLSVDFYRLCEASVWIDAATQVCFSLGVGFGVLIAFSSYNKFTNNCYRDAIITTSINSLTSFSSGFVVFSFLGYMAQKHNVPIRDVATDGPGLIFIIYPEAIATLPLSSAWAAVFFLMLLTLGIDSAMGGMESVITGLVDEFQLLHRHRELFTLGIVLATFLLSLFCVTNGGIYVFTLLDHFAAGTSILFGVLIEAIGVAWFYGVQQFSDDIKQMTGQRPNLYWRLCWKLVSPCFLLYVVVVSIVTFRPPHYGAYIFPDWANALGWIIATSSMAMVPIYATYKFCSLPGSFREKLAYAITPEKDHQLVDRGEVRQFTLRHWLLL
Chain of Norepinephrine transporter (Q9WTR4 whole entry): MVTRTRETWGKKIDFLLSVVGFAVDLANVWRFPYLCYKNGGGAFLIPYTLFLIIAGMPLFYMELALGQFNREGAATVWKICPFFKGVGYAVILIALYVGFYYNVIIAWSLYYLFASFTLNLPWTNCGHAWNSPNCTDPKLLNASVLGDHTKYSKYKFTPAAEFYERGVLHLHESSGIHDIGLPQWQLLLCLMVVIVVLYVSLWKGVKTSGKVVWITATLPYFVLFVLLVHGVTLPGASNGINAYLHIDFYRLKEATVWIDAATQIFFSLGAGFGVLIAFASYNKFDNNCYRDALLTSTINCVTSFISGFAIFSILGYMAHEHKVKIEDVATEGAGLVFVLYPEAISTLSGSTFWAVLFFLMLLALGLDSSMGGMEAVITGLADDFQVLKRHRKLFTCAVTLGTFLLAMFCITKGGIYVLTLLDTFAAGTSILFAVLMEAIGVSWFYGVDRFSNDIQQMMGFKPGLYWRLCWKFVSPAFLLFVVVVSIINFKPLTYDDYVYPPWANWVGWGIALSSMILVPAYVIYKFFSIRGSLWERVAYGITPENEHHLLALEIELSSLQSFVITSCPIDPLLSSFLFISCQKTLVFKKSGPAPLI
Chain of Sodium-dependent serotonin transporter (P31652 whole entry): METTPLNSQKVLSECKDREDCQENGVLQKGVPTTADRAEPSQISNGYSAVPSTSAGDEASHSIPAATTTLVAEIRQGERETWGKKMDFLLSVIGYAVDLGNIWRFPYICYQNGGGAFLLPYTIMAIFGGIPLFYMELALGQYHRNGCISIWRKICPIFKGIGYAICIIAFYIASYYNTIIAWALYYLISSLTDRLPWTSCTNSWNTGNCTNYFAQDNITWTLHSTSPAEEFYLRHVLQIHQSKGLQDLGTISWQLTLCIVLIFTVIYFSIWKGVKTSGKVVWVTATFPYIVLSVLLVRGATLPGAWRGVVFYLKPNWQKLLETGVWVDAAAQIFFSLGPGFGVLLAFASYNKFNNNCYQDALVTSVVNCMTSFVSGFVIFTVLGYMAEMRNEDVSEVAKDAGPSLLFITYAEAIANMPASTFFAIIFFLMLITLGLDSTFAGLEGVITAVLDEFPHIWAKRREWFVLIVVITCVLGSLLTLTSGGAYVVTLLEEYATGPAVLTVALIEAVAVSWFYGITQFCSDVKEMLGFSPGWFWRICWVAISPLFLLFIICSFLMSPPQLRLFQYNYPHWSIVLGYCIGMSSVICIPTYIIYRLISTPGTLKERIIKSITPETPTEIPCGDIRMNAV

## CCCNc1c2c(nc3ccccc13)CCCC2O (centres undefined)
[1]
  pIC50: < 4.70
[2]
  pIC50: < 4.70
[3]
  pIC50: 4.88
[4]
  LD50: < 80 mg/kg
[5]
  pIC50: < 4.70

## CNc1c2c(nc3ccccc13)CCCC2O (centres undefined)
[6]
  Animals: 0%
[2]
  pIC50: < 4.70
[7]
  Animals: 7%
[8]
  Animals: 0%
[9]
  Animals: 7%
[10]
  Animals: 7%
[3]
  pIC50: 5.75
[11]
  LD50: < 80 mg/kg
[5]
  pIC50: < 4.70
[12]
  Animals: 7%
[13]
  pIC50: < 4.70

## Cc1ccccc1CNc1c2c(nc3ccccc13)CCCC2O (centres undefined)
[6]
  Animals: 7%
[2]
  pIC50: 6.60
[7]
  Animals: 13%
[8]
  Animals: 0%
[9]
  Animals: 7%
[10]
  Animals: 7%
[3]
  pIC50: 5.23
[4]
  LD50: < 80 mg/kg
[14]
  ED50: 25.3 mg/kg
[5]
  pIC50: 5.05
[12]
  Animals: 0%
[13]
  pIC50: 7.28

## Nc1c2c(nc3ccc(Cl)cc13)CCCC2O (centres undefined)
[15]
  LD50: 80 mg/kg
[1]
  pIC50: < 5.00
[3]
  pIC50: 4.61

## OC1CCCc2nc3ccccc3c(NCc3ccccc3C(F)(F)F)c21 (centres undefined)
[6]
  Animals: 13%
[15]
  LD50: 80 mg/kg
[2]
  pIC50: 6.02
[7]
  Animals: 20%
[8]
  Animals: 38%
[9]
  Animals: 23%
[10]
  Animals: 13%
[3]
  pIC50: 4.88
[14]
  ED50: 16.2 mg/kg
[5]
  pIC50: 5.42
[12]
  Animals: 33%
[13]
  pIC50: 7.09

## Cc1cccc(CNc2c3c(nc4ccccc24)CCCC3O)c1 (centres undefined)
[6]
  Animals: 20%
[2]
  pIC50: 6.29
[7]
  Animals: 20%
[8]
  Animals: 7%
[9]
  Animals: 7%
[10]
  Animals: 13%
[3]
  pIC50: 4.61
[4]
  LD50: < 80 mg/kg
[5]
  pIC50: 5.26
[12]
  Animals: 20%
[13]
  pIC50: 6.66

## Nc1c2c(nc3cc(C(F)(F)F)ccc13)CCCC2O (centres undefined)
[6]
  Animals: 71%
[7]
  Animals: 33%
[8]
  Animals: 40%
[9]
  Animals: 26%
[10]
  Animals: 21%
[3]
  pIC50: 5.75
[4]
  LD50: < 80 mg/kg
[12]
  Animals: 33%

## OC1CCCc2nc3ccccc3c(NCc3cccc(F)c3)c21 (centres undefined)
[6]
  Animals: 7%
[16]
  LD50: < 80 mg/kg
[2]
  pIC50: 6.52
[7]
  Animals: 0%
[8]
  Animals: 33%
[9]
  Animals: 23%
[10]
  Animals: 14%
[3]
  pIC50: 4.88
[5]
  pIC50: 5.21
[12]
  Animals: 21%
[13]
  pIC50: 6.92

## OC1CCCc2nc3ccccc3c(NCc3ccccc3)c21 (centres undefined) [SURONACRINE]
[17]
  LD50: 94 mg/kg
[6]
  Animals: 20%
[18]
  pIC50: 4.49
[2]
  pIC50: 6.52
[7]
  Animals: 13%
[8]
  Animals: 27%
[9]
  Animals: 50%
[10]
  Animals: 21%
[19]
  Dose: 20 mg/kg
[20]
  LD50: < 60 mg/kg
[14]
  ED50: 27.4 mg/kg
[5]
  pIC50: 4.96
[12]
  Animals: 36%
[13]
  pIC50: 7.15

## Nc1c2c(nc3ccccc13)CCCC2O (centres undefined) [VELNACRINE]
[6]
  Animals: 33%
[16]
  LD50: < 80 mg/kg
[2]
  pIC50: < 4.70
[7]
  Animals: 20%
[8]
  Animals: 14%
[9]
  Animals: 20%
[10]
  Animals: 31%
[3]
  pIC50: 5.40
[5]
  pIC50: < 4.70
[21]
  LD50: 162 mg/kg
[12]
  Animals: 33%
[13]
  pIC50: < 4.70
